From ChEMBL document CHEMBL1137322, “Arylmethyloxyphenyl derivatives: small molecules displaying P-glycoprotein inhibition” (J Med Chem, 2006)
Activity calls are given as the source filed them. The rule behind the calls is not given here.

Legend:
NCI/ADR-RES = test: Cytotoxicity against MCF7/Adr cells at 100 uM after 48 hrs; type: functional, Homo sapiens
[1] = molecular target: T1, 5-hydroxytryptamine receptor 1A (Homo sapiens, UniProt P08908); test: Binding affinity to 5HT1A receptor
T1 sequence (P08908 whole entry): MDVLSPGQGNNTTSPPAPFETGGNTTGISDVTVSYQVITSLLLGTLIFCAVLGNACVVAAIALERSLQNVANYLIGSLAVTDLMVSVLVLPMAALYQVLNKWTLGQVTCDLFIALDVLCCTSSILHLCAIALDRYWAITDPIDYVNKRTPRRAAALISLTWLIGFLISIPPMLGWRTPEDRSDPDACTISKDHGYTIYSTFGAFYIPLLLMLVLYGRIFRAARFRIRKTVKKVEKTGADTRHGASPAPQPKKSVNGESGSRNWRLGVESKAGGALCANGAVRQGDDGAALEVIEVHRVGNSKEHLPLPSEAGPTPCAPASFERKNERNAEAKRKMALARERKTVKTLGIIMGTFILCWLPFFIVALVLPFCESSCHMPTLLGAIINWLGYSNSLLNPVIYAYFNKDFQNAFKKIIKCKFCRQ

Caco-2 [2] = test: Inhibition of vinblastine-induced ATPase activation in Caco-2 cells; type: functional, Homo sapiens
D(2) dopamine receptor = D(2) dopamine receptor (Homo sapiens, UniProt P14416); test: Binding affinity to D2 receptor
[3] = molecular target: T2, ATP-dependent translocase ABCB1 (Homo sapiens, UniProt P08183); test: Inhibition of Pgp measured as inhibition of [3H]vinblastine basolateral to apical transport in Caco-2 cells; type: functional, cell-based
[4] = molecular target: T2, ATP-dependent translocase ABCB1; test: Inhibition of Pgp measured as doxorubicin accumulation in MCF7/Adr cells at 20 nM by flow cytometry; type: functional, cell-based; settings: nci/adr-res, 0.02 µM
Caco-2 [5] = test: Inhibition of ATPase measured as increase in ATP level in Caco-2 cells at 20 uM relative to vinblastine after 120 mins; type: functional, Homo sapiens; parameters: scale not given: the % may be the effect or the level left
Caco-2 [6] = test: Inhibition of ATPase measured as ATP availability in Caco-2 cells at 20 nM after 60 mins relative to control; type: functional, Homo sapiens; parameters: scale not given: the % may be the effect or the level left
Caco-2 [7] = test: Inhibition of ATPase measured as ATP availability in Caco-2 cells at 20 nM after 90 mins relative to control; type: functional, Homo sapiens; parameters: scale not given: the % may be the effect or the level left
Caco-2 [8] = test: Inhibition of ATPase measured as ATP availability in Caco-2 cells at 20 nM after 120 mins relative to control; type: functional, Homo sapiens; parameters: scale not given: the % may be the effect or the level left

D(2) dopamine receptor, sequence (P14416 whole entry): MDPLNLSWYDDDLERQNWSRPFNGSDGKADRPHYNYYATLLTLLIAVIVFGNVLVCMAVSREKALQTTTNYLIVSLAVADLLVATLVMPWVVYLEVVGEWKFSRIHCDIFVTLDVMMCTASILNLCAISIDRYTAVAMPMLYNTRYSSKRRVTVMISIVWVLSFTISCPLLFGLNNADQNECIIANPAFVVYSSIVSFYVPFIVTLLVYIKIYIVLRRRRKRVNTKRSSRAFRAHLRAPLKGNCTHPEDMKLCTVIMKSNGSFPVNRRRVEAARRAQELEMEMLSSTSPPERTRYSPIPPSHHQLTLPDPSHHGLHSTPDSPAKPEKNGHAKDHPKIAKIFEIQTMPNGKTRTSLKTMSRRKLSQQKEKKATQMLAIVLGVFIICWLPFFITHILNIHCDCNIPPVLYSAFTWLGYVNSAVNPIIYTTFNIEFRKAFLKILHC
T2 sequence (P08183 whole entry): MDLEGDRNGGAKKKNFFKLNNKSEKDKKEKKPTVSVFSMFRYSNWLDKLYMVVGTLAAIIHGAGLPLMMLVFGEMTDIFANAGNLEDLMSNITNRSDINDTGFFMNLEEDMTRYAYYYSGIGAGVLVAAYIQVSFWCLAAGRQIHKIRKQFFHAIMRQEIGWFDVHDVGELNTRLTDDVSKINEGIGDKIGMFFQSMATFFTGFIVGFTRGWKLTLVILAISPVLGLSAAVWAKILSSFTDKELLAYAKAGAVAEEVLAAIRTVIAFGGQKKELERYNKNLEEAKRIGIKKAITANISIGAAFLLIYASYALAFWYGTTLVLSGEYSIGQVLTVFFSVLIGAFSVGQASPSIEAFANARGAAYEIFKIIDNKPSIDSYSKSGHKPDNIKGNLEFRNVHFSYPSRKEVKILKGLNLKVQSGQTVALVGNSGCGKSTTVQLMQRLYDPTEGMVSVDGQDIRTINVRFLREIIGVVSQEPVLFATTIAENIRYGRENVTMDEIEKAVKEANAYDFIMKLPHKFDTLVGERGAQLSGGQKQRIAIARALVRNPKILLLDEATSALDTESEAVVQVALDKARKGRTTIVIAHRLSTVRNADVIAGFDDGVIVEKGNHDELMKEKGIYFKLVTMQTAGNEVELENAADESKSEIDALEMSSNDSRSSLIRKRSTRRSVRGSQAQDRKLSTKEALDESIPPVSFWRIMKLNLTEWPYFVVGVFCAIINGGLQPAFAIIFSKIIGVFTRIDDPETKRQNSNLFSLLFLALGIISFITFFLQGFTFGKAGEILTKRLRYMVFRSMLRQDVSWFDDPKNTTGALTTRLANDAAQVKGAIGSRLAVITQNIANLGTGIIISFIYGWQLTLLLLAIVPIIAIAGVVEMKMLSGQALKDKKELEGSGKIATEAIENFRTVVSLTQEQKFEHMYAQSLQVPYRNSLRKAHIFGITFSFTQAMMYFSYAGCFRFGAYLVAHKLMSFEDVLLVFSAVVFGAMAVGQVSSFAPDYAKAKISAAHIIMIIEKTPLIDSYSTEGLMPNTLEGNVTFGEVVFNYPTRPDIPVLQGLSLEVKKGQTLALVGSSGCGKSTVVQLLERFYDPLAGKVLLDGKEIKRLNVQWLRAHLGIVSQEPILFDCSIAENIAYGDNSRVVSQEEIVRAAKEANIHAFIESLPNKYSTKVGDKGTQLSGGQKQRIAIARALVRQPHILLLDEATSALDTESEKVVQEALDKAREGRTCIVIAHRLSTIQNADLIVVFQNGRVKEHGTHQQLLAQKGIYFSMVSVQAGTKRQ

Row | SMILES | Ki [1] [µM] | Ki (D(2) dopamine receptor) [µM] | EC50 [3] [µM] | Activity [4] | Activity (NCI/ADR-RES) [%] | Activity (Caco-2 [2]) [µM] | Activity (Caco-2 [5]) [%] | Activity (Caco-2 [2]; Homo sapiens) | Activity (Caco-2 [6]) [%] | Activity (Caco-2 [7]) [%] | Activity (Caco-2 [8]) [%]
1 | COc1cccc(CCc2ccccc2OCc2ccccn2)c1 | 5 | 5 | 27.6 | Active | 8 |  | 41 | inactive |  |  | 
2 | COc1cccc(CCc2ccccc2OCc2ccccc2)c1 | 5 | 5 | 92.8 |  | 8 |  | 19 | inactive |  |  | 
3 | COc1cccc(CCc2ccccc2OCc2cccc(OC)c2)c1 | 5 | 5 | 17.2 | Active | 8 |  | 41 | inactive |  |  | 
4 | COc1cc2c(cc1OC)CN(CCc1ccc(NC(=O)c3cccc4c(=O)c5cccc(OC)c5[nH]c34)cc1)CC2 |  |  |  |  |  |  |  | inactive |  |  | 
5 | CC[C@]1(O)C[C@@H]2CN(CCc3c([nH]c4ccccc34)[C@@](C(=O)OC)(c3cc4c(cc3OC)N(C)[C@H]3[C@@](O)(C(=O)OC)[C@H](OC(C)=O)[C@]5(CC)C=CCN6CC[C@]43[C@@H]65)C2)C1 [VINBLASTINE] |  |  |  |  |  |  |  |  | 81 | 72 | 42
6 | COc1cccc(CCc2ccccc2OCc2cccnc2)c1 | 5 | 5 |  |  | 8 | 400 |  |  |  |  | 
7 | COc1ccc(CCN(C)CCCC(C#N)(c2ccc(OC)c(OC)c2)C(C)C)cc1OC (centres undefined) |  |  |  |  | 95 |  |  |  |  |  | 

Further lines, with some results ahead:

Row | Ki [1] [µM] | Ki (D(2) dopamine receptor) [µM] | EC50 [3] [µM] | Activity [4] | SMILES | Activity (NCI/ADR-RES) [%] | Activity (Caco-2 [2]) [µM] | Activity (Caco-2 [5]) [%] | Activity (Caco-2 [2]; Homo sapiens) | Activity (Caco-2 [6]) [%] | Activity (Caco-2 [7]) [%] | Activity (Caco-2 [8]) [%]
8 | 5 | 5 |  |  | c1ccc(CCc2ccccc2OCc2ccccc2)cc1 | 8 | 50 |  |  |  |  | 
9 | 5 | 5 | 125 |  | c1ccc(CCc2ccccc2OCc2cccnc2)cc1 | 8 | 100 |  |  |  |  | 
10 | 5 | 5 | 100 |  | c1ccc(CCc2ccccc2OCc2ccccn2)cc1 | 8 |  | 15 | inactive |  |  | 
